Tests used:
system Xc^− [1] = target: T1, system Xc^− (Homo sapiens, UniProt Q9UPY5); experiment: [^14C]L-Cystine uptake assay; assay type: cell-based; set-up: endogenous in cells; host or cells: H4 cells; details: H4 cells, sodium-free HEPES buffer, 0.5 μM L-[14C]Cystine and 4.5 μM L-Cystine, 1 hour at 37° C.; read-out: pIC50 [^14C] L-Cystine uptake assay (converted)
T1 sequence (Q9UPY5 1-501): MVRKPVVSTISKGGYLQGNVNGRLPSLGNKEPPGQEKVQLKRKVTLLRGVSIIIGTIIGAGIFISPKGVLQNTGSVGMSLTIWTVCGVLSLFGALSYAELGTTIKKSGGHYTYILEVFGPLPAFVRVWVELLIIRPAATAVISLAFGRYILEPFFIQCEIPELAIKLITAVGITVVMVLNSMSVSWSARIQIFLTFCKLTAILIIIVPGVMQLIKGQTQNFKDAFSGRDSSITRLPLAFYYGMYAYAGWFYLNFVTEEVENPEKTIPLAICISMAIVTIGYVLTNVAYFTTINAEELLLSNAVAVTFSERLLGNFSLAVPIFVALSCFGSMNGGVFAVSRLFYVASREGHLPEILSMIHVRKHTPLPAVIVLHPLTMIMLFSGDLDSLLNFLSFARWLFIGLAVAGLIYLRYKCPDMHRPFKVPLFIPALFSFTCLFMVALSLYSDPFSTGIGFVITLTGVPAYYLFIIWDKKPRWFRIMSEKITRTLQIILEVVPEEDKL
T1 sequence (P08195 1-529 partner): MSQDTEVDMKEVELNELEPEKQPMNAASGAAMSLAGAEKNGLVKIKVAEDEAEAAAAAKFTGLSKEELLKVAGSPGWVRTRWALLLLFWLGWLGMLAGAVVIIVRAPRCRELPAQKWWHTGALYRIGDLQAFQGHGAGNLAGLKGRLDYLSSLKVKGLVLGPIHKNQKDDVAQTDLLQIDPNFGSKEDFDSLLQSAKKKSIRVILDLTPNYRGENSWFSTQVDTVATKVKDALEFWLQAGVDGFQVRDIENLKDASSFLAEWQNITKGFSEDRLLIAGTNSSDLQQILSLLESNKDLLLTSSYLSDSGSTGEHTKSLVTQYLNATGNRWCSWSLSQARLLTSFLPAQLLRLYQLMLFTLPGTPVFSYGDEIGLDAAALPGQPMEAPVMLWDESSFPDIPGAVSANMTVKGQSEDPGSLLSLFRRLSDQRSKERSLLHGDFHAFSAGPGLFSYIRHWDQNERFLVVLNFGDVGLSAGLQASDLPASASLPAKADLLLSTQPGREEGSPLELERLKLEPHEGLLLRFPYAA
How it was run: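 H4 cells at 5×10^4 cells/well in sodium-free HEPES buffer were preincubated 15 min with compounds (1% DMSO). Uptake of 0.5 μM [14C]L-cystine plus 4.5 μM unlabelled L-cystine ran 1 hour at 37° C on scintillating plates. IC50 was set between 1% DMSO and 50 μM Erastin controls and expressed as pIC50.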

system Xc^− [2] = target: T1, system Xc^−; experiment: Cystine-induced glutamate release assay; assay type: cell-based; set-up: endogenous in cells; host or cells: H4 cells; details: H4 cells, sodium-free HEPES buffer, 50 μM L-Cystine, 2 hours, Amplex Red glutamate readout; read-out: pIC50 Cystine-induced glutamate release assay (converted)
How it was run: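 H4 cells in sodium-free HEPES buffer (pH 7.4), 2 days after plating; glutamate release induced with 50 μM L-cystine plus compound (1% DMSO), 2 h at 37 °C. Supernatant glutamate measured by Amplex Red fluorescence; IC50/pIC50 derived between 1% DMSO and 50 μM erastin controls.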

| SMILES | IC50 (system Xc^− [1]) | IC50 (system Xc^− [2]) |
| --- | --- | --- |
| CC1C(=O)N(CC(=O)Nc2ccc(C(F)F)cc2)c2cc(N3CC4(C3)CC(F)(F)C4)nc(F)c2-c2cccnc21 (single isomer, unassigned) [#281, 2-[5-(6,6-difluoro-2-azaspiro[3.3]heptan-2-yl)-3-fluoro-10-methyl-9-oxo-4,8,12-triazatricyclo[9.4.0.0^2,7]pentadeca-1(15),2,4,6,11,13-hexaen-8-yl]-N-[4-(difluoromethyl)phenyl]acetamide] | 39.8 to 100 nM | 39.8 to 100 nM |
| CC1C(=O)N(CC(=O)Nc2ccc(C(F)F)cc2)c2cc(N3CC4(COC4)C3)nc(F)c2-c2cccnc21 (single isomer, unassigned) [#284, N-[4-(difluoromethyl)phenyl]-2-[3-fluoro-10-methyl-5-(2-oxa-6-azaspiro[3.3]heptan-6-yl)-9-oxo-4,8,12-triazatricyclo[9.4.0.0^2,7]pentadeca-1(15),2,4,6,11,13-hexaen-8-yl]acetamide] | < 15.8 nM | < 15.8 nM |
| CC1C(=O)N(CC(=O)Nc2ccc(C(F)F)cc2)c2cc(N3CC4(C3)CC4(F)F)nc(F)c2-c2cccnc21 (single isomer, unassigned) [#286, 2-[5-(2,2-difluoro-5-azaspiro[2.3]hexan-5-yl)-3-fluoro-10-methyl-9-oxo-4,8,12-triazatricyclo[9.4.0.0^2,7]pentadeca-1(15),2,4,6,11,13-hexaen-8-yl]-N-[4-(difluoromethyl)phenyl]acetamide] | < 15.8 nM | < 15.8 nM |
| CC1C(=O)N(CC(=O)Nc2ccc(C(F)F)cc2)c2cc(N3[C@@H]4CCC[C@H]3C4)nc(F)c2-c2cccnc21 (single isomer, unassigned) [#287, 2-[5-(6-azabicyclo[3.1.1]heptan-6-yl)-3-fluoro-10-methyl-9-oxo-4,8,12-triazatricyclo[9.4.0.0^2,7]pentadeca-1(15),2,4,6,11,13-hexaen-8-yl]-N-[4-(difluoromethyl)phenyl]acetamide] | < 15.8 nM | 15.8 to 39.8 nM |
| CC1C(=O)N(CC(=O)Nc2ccc(C(F)F)cc2)c2cc(N3CC(C)(F)C3)nc(F)c2-c2cccnc21 (single isomer, unassigned) [#288, N-[4-(difluoromethyl)phenyl]-2-[3-fluoro-5-(3-fluoro-3-methyl-azetidin-1-yl)-10-methyl-9-oxo-4,8,12-triazatricyclo[9.4.0.0^2,7]pentadeca-1(15),2,4,6,11,13-hexaen-8-yl]acetamide] | < 15.8 nM | < 15.8 nM |
| C[C@H]1C(=O)N(CC(=O)Nc2ccc(C(F)F)cc2)c2cc(N3CC4C(C3)C4(F)F)nc(F)c2-c2cccnc21 (single isomer, unassigned) [#289, 2-[5-(6,6-difluoro-3-azabicyclo[3.1.0]hexan-3-yl)-3-fluoro-10-methyl-9-oxo-4,8,12-triazatricyclo[9.4.0.0^2,7]pentadeca-1(11),2(7),3,5,12,14-hexaen-8-yl]-N-[4-(difluoromethyl)phenyl]acetamide] | < 15.8 nM | 15.8 to 39.8 nM |
| CC1C(=O)N(CC(=O)Nc2ccc(C(F)F)cc2)c2cc(N3C[C@H]4C[C@@H](C3)C4(F)F)nc(F)c2-c2cccnc21 (single isomer, unassigned) [#290, 2-[5-(6,6-difluoro-3-azabicyclo[3.1.1]heptan-3-yl)-3-fluoro-10-methyl-9-oxo-4,8,12-triazatricyclo[9.4.0.0^2,7]pentadeca-1(11),2(7),3,5,12,14-hexaen-8-yl]-N-[4-(difluoromethyl)phenyl]acetamide] | 15.8 to 39.8 nM | 39.8 to 100 nM |
| CC1C(=O)N(CC(=O)Nc2ccc(C(F)F)cc2)c2cc(N3CC(F)(F)C3)nc(F)c2-c2ccc(F)cc21 (single isomer, unassigned) [#291, 2-[3-(3,3-difluoroazetidin-1-yl)-1,9-difluoro-7-methyl-6-oxo-7H-pyrido[4,3-d][3]benzazepin-5-yl]-N-[4-(difluoromethyl)phenyl]acetamide] | 15.8 to 39.8 nM | < 15.8 nM |
| CC1C(=O)N(CC(=O)Nc2ccc(Cl)c(F)c2)c2cc(N3CC(F)(F)C3)ncc2-c2cccnc21 (single isomer, unassigned) [#293, N-(4-chloro-3-fluoro-phenyl)-2-[5-(3,3-difluoroazetidin-1-yl)-10-methyl-9-oxo-4,8,12-triazatricyclo[9.4.0.0^2,7]pentadeca-1(15),2,4,6,11,13-hexaen-8-yl]acetamide] | 15.8 to 39.8 nM | 39.8 to 100 nM |
| COc1nccc2c1-c1cccnc1C(C)C(=O)N2CC(=O)Nc1ccc(Cl)c(F)c1 (single isomer, unassigned) [#297, N-(4-chloro-3-fluoro-phenyl)-2-[3-methoxy-10-methyl-9-oxo-4,8,12-triazatricyclo[9.4.0.0^2,7]pentadeca-1(15),2(7),3,5,11,13-hexaen-8-yl]acetamide] | < 15.8 nM | < 15.8 nM |

Second part, the compound after the results:

| IC50 (system Xc^− [1]) | IC50 (system Xc^− [2]) | SMILES |
| --- | --- | --- |
| < 15.8 nM | 15.8 to 39.8 nM | CC1C(=O)N(CC(=O)Nc2ccc(C(F)F)cc2)c2cc(N3CC4(CCOC4)C3)nc(F)c2-c2cccnc21 (single isomer, unassigned) [#282, N-[4-(difluoromethyl)phenyl]-2-[3-fluoro-10-methyl-5-(6-oxa-2-azaspiro[3.4]octan-2-yl)-9-oxo-4,8,12-triazatricyclo[9.4.0.0^2,7]pentadeca-1(15),2,4,6,11,13-hexaen-8-yl]acetamide] |
| 15.8 to 39.8 nM | < 15.8 nM | CC1C(=O)N(CC(=O)Nc2ccc(C(F)F)cc2)c2cc(N3CC4(CC4)C3)nc(F)c2-c2cccnc21 (single isomer, unassigned) [#283, 2-[5-(5-azaspiro[2.3]hexan-5-yl)-3-fluoro-10-methyl-9-oxo-4,8,12-triazatricyclo[9.4.0.0^2,7]pentadeca-1(15),2,4,6,11,13-hexaen-8-yl]-N-[4-(difluoromethyl)phenyl]acetamide] |
| < 15.8 nM | < 15.8 nM | COc1nccc2c1-c1cccnc1C(C)C(=O)N2CC(=O)Nc1ccc(C(F)F)cc1 (single isomer, unassigned) [#298, N-[4-(difluoromethyl)phenyl]-2-[3-methoxy-10-methyl-9-oxo-4,8,12-triazatricyclo[9.4.0.0^2,7]pentadeca-1(15),2(7),3,5,11,13-hexaen-8-yl]acetamide] |
| < 15.8 nM | < 15.8 nM | COc1cc2c(c(C)n1)-c1cccnc1C(C)C(=O)N2CC(=O)Nc1ccc(C(F)F)cc1 (single isomer, unassigned) [#299, N-[4-(difluoromethyl)phenyl]-2-[5-methoxy-3,10-dimethyl-9-oxo-4,8,12-triazatricyclo[9.4.0.0^2,7]pentadeca-1(15),2(7),3,5,11,13-hexaen-8-yl]acetamide] |
| < 15.8 nM | < 15.8 nM | COc1cc2c(c(C)n1)-c1cccnc1C(C)C(=O)N2CC(=O)Nc1ccc(Cl)c(F)c1 (single isomer, unassigned) [#300, N-(4-chloro-3-fluoro-phenyl)-2-[5-methoxy-3,10-dimethyl-9-oxo-4,8,12-triazatricyclo[9.4.0.0^2,7]pentadeca-1(15),2(7),3,5,11,13-hexaen-8-yl]acetamide] |
| 39.8 to 100 nM | 39.8 to 100 nM | Cc1cc2c(c(C(F)F)n1)-c1cccnc1C(C)C(=O)N2CC(=O)Nc1ccc(C(F)F)cc1 (single isomer, unassigned) [#301, 2-[3-(difluoromethyl)-5,10-dimethyl-9-oxo-4,8,12-triazatricyclo[9.4.0.0^2,7]pentadeca-1(11),2(7),3,5,12,14-hexaen-8-yl]-N-[4-(difluoromethyl)phenyl]acetamide] |
| 15.8 to 39.8 nM | 39.8 to 100 nM | Cc1cc2c(c(C(F)F)n1)-c1cccnc1C(C)C(=O)N2CC(=O)Nc1ccc(Cl)c(F)c1 (single isomer, unassigned) [#302, N-(4-chloro-3-fluoro-phenyl)-2-[3-(difluoromethyl)-5,10-dimethyl-9-oxo-4,8,12-triazatricyclo[9.4.0.0^2,7]pentadeca-1(15),2,4,6,11,13-hexaen-8-yl]acetamide] |
